In US9497970B2, “Pesticide compounds” (priority 2013, dated 2016):

Legend:
Format in all cases: in vivo
Settings in all cases: 120 h, 800 ppm, sprayed onto insect diet, 5 days, in comparison with untreated controls, read-out: mortality (egg and larval)
[1] = test system: Tobacco Budworm (Heliothis virescens); assay: B.7 Tobacco Budworm (Heliothis virescens) I, microtiter plate insect diet
Description: B.7 Tobacco Budworm (Heliothis virescens) I
For evaluating control of tobacco budworm (Heliothis virescens) the test unit consisted of 96-well-microtiter plates containing an insect diet and 15-25 H. virescens eggs. The compounds were formulated using a solution containing 75% v/v water and 25% v/v DMSO. Different concentrations of formulated compounds were sprayed onto the insect diet at 10 μl, using a custom built micro atomizer, at two replications.
(§1) After application, microtiter plates were incubated at about 28±1° C. and about 80±5% relative humidity for 5 days. Egg and larval mortality was then visually assessed.

[2] = test system: Mediterranean Fruitfly (Ceratitis capitata); assay: B.6 Mediterranean Fruitfly (Ceratitis capitata), microtiter plate insect diet
Description: B.6 Mediterranean Fruitfly (Ceratitis capitata)
For evaluating control of Mediterranean fruitfly (Ceratitis capitata) the test unit consisted of microtiter plates containing an insect diet and 50-80 C. capitata eggs.
(§2) The compounds were formulated using a solution containing 75% v/v water and 25% v/v DMSO. Different concentrations of formulated compounds were sprayed onto the insect diet at 5 μl, using a custom built micro atomizer, at two replications.
as §1

[3] = test system: Boll Weevil (Anthonomus grandis); assay: B.3 Boll Weevil (Anthonomus grandis), microtiter plate insect diet
Description: B.3 Boll Weevil (Anthonomus grandis)
For evaluating control of boll weevil (Anthonomus grandis) the test unit consisted of 96-well-microtiter plates containing an insect diet and 5-10 A. grandis eggs.
as §2
After application, microtiter plates were incubated at about 25±1° C. and about 75±5% relative humidity for 5 days. Egg and larval mortality was then visually assessed.

In the case of `Cc1cccc(C)c1NC(=S)N/N=C/c1ccc2c(c1)CCc1c-2nnn1-c1ccc(OC(F)(F)F)cc1` [C-11, 1-(2,6-dimethylphenyl)-3-[(E)-[3-[4-(trifluoromethoxy)phenyl]-4,5-dihydrobenzo[e]benzotriazol-7-yl]methyleneamino]thiourea], the mortality at 800 ppm [1] is reported as at least 75% and the mortality at 800 ppm [2] is reported as at least 75%.

`Cc1cccc(NC(=S)N/N=C/c2ccc3c(ccc4c3ncn4-c3ccc(OC(F)(F)F)cc3)c2)c1C` [C-28, 1-(2,3-dimethylphenyl)-3-[(E)-[3-[4-(trifluoromethoxy)phenyl]benzo[e]benzimidazol-7-yl]methyleneamino] thiourea] was tested, and the mortality at 800 ppm [1] was at least 75%, the mortality at 800 ppm [3] was at least 75% and the mortality at 800 ppm [2] was at least 75%.

Molecule `CCc1ccccc1NC(=S)N/N=C/c1ccc2c(c1)CCc1c-2nnn1-c1ccc(OC(F)(F)F)cc1` [C-32, 1-(2-ethylphenyl)-3-[[3-[4-(trifluoromethoxy)phenyl]-5,6-dihydro-4H-benzo[e]benzotriazol-7-ylidene]methylimino]thiourea] has a mortality at 800 ppm [3] of at least 75%.

`Cc1cc(Br)cc(C)c1NC(=S)N/N=C/c1ccc2c(c1)CCc1c-2nnn1-c1ccc(OC(F)(F)F)cc1` [C-33, 1-(4-bromo-2,6-dimethyl-phenyl)-3-[(E)-[3-[4-(trifluoromethoxy)phenyl]-4,5-dihydrobenzo[e]benzotriazol-7-yl]methyleneamino]thiourea] was tested, and the mortality at 800 ppm [1] was at least 75% and the mortality at 800 ppm [3] was at least 75%.

In the case of `FC(F)(F)Oc1ccc(-n2cnc3c4ccc(/C=N/NC(=S)Nc5cc(Cl)ccc5Cl)cc4ccc32)cc1` [C-42, 1-(2,5-dichlorophenyl)-3-[(E)-[3-[4-(trifluoromethoxy)phenyl]benzo[e]benzimidazol-7-yl]methyleneamino] thiourea], the mortality at 800 ppm [3] is reported as at least 75%.

In the case of `FC(F)(F)Oc1ccc(-n2ncc3c4ccc(/C=N/NC(=S)Nc5c(Cl)cccc5Cl)cc4ccc32)cc1` [C-49, 1-(2,6-dichlorophenyl)-3-[(E)-[3-[4-(trifluoromethoxy)phenyl]benzo[e]indazol-7-yl]methyleneamino]thiourea], the mortality at 800 ppm [1] is reported as at least 75% and the mortality at 800 ppm [3] is reported as at least 75%.

Work on `Cc1cccc(C)c1NC(=S)N/N=C/c1ccc2c(ccc3c2nnn3-c2ccc(OC(F)(F)F)cc2)c1` [C-54, 1-(2,6-dimethylphenyl)-3-[(E)-[3-[4-(trifluoromethoxy)phenyl]benzo[e]benzotriazol-7-yl]methyleneamino] thiourea] yielded a mortality at 800 ppm [1] of at least 75%.

`CCc1cccc(CC)c1NC(=S)N/N=C/c1ccc2c(ccc3c2nnn3-c2ccc(OC(F)(F)F)cc2)c1` [C-61, 1-(2,6-diethylphenyl)-3-[(E)-[3-[4-(trifluoromethoxy)phenyl]benzo[e]benzotriazol-7-yl]methyleneamino] thiourea] showed a mortality at 800 ppm [1] of at least 75% and a mortality at 800 ppm [3] of at least 75%.

In the case of `CCc1cccc(C)c1NC(=S)N/N=C/c1ccc2c(ccc3c2nnn3-c2ccc(OC(F)(F)F)cc2)c1` [C-62, 1-(2-ethyl-6-methyl-phenyl)-3-[(E)-[3-[4-(trifluoromethoxy)phenyl]benzo[e]benzotriazol-7-yl]methyleneamino] thiourea], the mortality at 800 ppm [1] is reported as at least 75%.

`FC(F)(F)Oc1ccc(-n2cnc3c4ccc(/C=N/NC(=S)Nc5cccnc5)cc4ccc32)cc1` [C-73, 1-(3-pyridyl)-3-[(E)-[3-[4-(trifluoromethoxy)phenyl]benzo[e]benzimidazol-7-yl]methyleneamino] thiourea] gave a mortality at 800 ppm [3] of at least 75%.

With `Cn1nc2c(ccc3cc(/C=N/NC(=S)Nc4ncccc4I)ccc32)c1-c1ccc(OC(F)(F)F)cc1` [C-102, 1-(3-iodo-2-pyridyl)-3-[(E)-[2-methyl-3-[4-(trifluoromethoxy)phenyl]benzo[g]indazol-7-yl]methyleneamino]thiourea] the mortality at 800 ppm [3] was at least 75%.

`O=C(/N=C1\SCC(=O)N1c1ccccc1C(F)(F)F)Nc1ccc2c(ccc3c2ncn3-c2ccc(OC(F)(F)F)cc2)c1` [C-116, (1Z)-1-[4-oxo-3-[2-(trifluoromethyl)phenyl]thiazolidin-2-ylidene]-3-[3-[4-(trifluoromethoxy)phenyl]-8H-benzo[e]benzimidazol-7-ylidene]urea] showed a mortality at 800 ppm [1] of at least 75% and a mortality at 800 ppm [3] of at least 75%.
